In assay [1] the target is T1, FABP7 (Homo sapiens, UniProt O15540).
T1 sequence (O15540 2-132): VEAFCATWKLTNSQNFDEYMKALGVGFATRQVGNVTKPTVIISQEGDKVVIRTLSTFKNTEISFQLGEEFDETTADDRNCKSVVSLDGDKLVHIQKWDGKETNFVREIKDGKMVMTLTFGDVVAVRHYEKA
The assay is described as follows: radioligand competition against 3H-cholesterol. The format is binding. The conditions noted are these: 1.5 µM cholesterol, pH 7.4, 25 °C, competitive. A general note: Displacement assays read how much labelled ligand stays bound in the presence of the test substance.

The target in assay [2] is T2, FABP3 (Homo sapiens, UniProt P05413). Put plainly: radioligand binding, Ni bead pull-down, scintillation counting. The conditions noted are these: 1.5 µM ligand, 150 nM protein; labelled compound; pH 7.4, 25 °C.
T2 sequence (P05413 2-133): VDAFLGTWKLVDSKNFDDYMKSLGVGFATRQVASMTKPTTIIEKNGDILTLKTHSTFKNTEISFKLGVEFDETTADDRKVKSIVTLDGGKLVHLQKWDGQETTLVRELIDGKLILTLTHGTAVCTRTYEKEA
Assay [3] deals with T3, FABP8 (Homo sapiens, UniProt P02689). The assay is described as above. The conditions noted are these: 1.5 µM ligand, 150 nM protein; labelled compound; pH 7.4, 25 °C.
T3 sequence (P02689 2-132): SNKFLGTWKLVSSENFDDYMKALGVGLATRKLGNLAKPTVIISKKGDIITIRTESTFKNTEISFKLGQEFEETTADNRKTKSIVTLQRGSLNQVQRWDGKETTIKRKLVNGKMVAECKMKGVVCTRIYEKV
The target of assay [4] is T1, FABP7. Described as above.
In assay [5] the target is T2, FABP3. The conditions noted are these: 0.5 µM protein, 5 mol% DHE in donor liposomes, pH 7.2, 25 °C.
Assay [6] concerns the target T3, FABP8. The conditions noted are these: 0.5 µM protein, 5 mol% DHE in donor liposomes, pH 7.2, 25 °C.
For assay [7], the target named is T1, FABP7. The conditions noted are these: 0.5 µM protein, 5 mol% DHE in donor liposomes, pH 7.2, 25 °C.
Assay [8] has as its target T3, FABP8. Put plainly: radioligand binding, Ni bead pull-down, scintillation counting. The conditions noted are these: 1.5 µM ligand, 150 nM protein; labelled compound; pH 7.4, 25 °C. This is another data set of the same source.
The target in assay [9] is T2, FABP3. Described as above. As to conditions: 1.5 µM ligand, 150 nM protein; labelled compound; pH 7.4, 25 °C. The source holds these as a separate data set.

For the compound `CCCCC/C=C\C/C=C\C/C=C\C/C=C\CCCC(=O)O` [arachidonic acid], the “relative 3H-cholesterol bound” value on FABP7 [1] (competitor 7.5 µM) is listed as “all the tested fatty acids could compete with ^3H-cholesterol for FABP7 binding”.

As for `CC(C)CCC[C@@H](C)[C@H]1CC[C@H]2[C@@H]3CC=C4C[C@@H](O)CC[C@]4(C)[C@H]3CC[C@]12C` [cholesterol], the results for the “relative 3H-cholesterol bound” value at FABP3 [2] and at FABP8 [3] were “FABP3 showed modestly yet significantly reduced binding affinity for cholesterol” and “FABP8 bound cholesterol as potently as FABP7”, respectively. For the same compound, the affinity on FABP7 [4], expressed as Kd, was 3.04 ± 0.78 µM.

As to `CC(C)[C@@H](C)/C=C/[C@@H](C)[C@H]1CC[C@H]2C3=CC=C4C[C@@H](O)CC[C@]4(C)C3=CC[C@]12C` [dehydroergosterol], the initial transport rate result was “FABP3 and FABP8 could transfer DHE as efficiently as FABP7” on FABP3 [5]; “FABP3 and FABP8 could transfer DHE as efficiently as FABP7” at FABP8 [6]; “The purified FABP7 protein promoted DHE transport” at FABP7 [7].

For `CC/C=C\C/C=C\C/C=C\C/C=C\C/C=C\C/C=C\CCC(=O)O` [docosahexaenoic acid], the “relative 3H-cholesterol bound” value at FABP7 [1] (competitor 7.5 µM) was “all the tested fatty acids could compete with ^3H-cholesterol for FABP7 binding”.

In the case of `CCCCCCCC/C=C\CCCCCCCC(=O)O` [oleic acid], the “relative 3H-oleic acid bound” value on FABP8 [8] was “Both FABP3 and FABP8 could bind oleic acid avidly”; on FABP3 [9], “Both FABP3 and FABP8 could bind oleic acid avidly”. In addition, on FABP7 [1] (competitor 3.75-15 µM), the “relative 3H-cholesterol bound” value was “oleic acid was the most potent ligand and showed a dose-dependent competing effect”.

With `CCCCCCCCCCCCCCCC(=O)O` [palmitic acid], on FABP7 [1] (competitor 7.5 µM), the “relative 3H-cholesterol bound” value is given as “all the tested fatty acids could compete with ^3H-cholesterol for FABP7 binding”.

The record behind these values is publication PMC10909654 (The Journal of Cell Biology, 2024).
